Assay results from patent US20080194574A1, “Pyrazine Derivatives As Effective Compounds Against Infectious Diseases” (AXXIMA PHARMACEUTICALS AG, priority 2003, published 2008).

biological target: T1, viral kinase pUL-97 (Human cytomegalovirus, UniProt P16788); assay: UL97 kinase assay on Immobilon plate; format: biochemical; settings: inhibition of UL 97 kinase activity; class by IC50 / % inhibition at 10 μM or 100 μM; read-out: Activity Class [A, B, C]
T1 construct: The pUL-97 gene was cloned into a baculovirus vector; GST (glutathione S-transferase) (N); made in house; host or cells: Sf9 insect cells, baculovirus
T1 sequence (P16788 whole entry): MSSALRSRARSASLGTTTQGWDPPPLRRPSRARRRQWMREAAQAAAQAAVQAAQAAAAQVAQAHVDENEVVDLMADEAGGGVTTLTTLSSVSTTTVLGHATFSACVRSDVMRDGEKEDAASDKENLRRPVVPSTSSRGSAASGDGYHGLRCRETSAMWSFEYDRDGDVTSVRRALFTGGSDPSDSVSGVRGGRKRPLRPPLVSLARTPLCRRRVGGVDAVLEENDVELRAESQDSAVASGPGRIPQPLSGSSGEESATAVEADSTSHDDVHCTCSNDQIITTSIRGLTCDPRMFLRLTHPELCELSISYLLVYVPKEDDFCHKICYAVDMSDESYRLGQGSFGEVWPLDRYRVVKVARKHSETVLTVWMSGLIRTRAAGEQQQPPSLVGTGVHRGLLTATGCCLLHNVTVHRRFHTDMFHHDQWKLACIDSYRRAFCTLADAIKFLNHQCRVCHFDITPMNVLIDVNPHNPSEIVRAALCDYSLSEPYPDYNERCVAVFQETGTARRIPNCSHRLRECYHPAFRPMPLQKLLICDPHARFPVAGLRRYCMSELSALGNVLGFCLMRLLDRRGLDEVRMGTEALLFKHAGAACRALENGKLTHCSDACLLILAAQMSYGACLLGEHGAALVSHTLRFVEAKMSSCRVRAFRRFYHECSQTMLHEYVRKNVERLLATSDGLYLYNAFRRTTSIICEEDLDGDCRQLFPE
How it was run: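 GST-pUL97 from baculovirus-infected Sf9 cells phosphorylated myelin basic protein with ATP (3 μM in the added assay buffer) and γ-[33P]ATP in Tris-HCl pH 7.5 buffer with MnCl2 and DTT. Reaction ran 1 h at 30 °C with graded compound concentrations and was stopped with EDTA. 33P incorporation was measured by scintillation after filter capture and phosphoric acid washes.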

Compound | IC50
c1ccc(Oc2ccc(-c3cncc(N4CCN(c5ccccn5)CC4)n3)cc2)cc1 [compound 341, 6′-(4-Phenoxy-phenyl)-4-pyridin-2-yl-3,4,5,6-tetrahydro-2H-[1,2′]bipyrazinyl] | 10 to 100 µM
Cc1cccc(-c2cncc(N3CCN(c4ccccn4)CC3)n2)c1 [compound 327, 4-Pyridin-2-yl-6′-m-tolyl-3,4,5,6-tetrahydro-2H-[1,2′]bipyrazinyl] | 10 to 100 µM
COc1ccc(-c2cncc(N3CCN(c4ccc(C(C)=O)cc4)CC3)n2)cc1F [compound 206, 1-{4-[6′-(3-Fluoro-4-methoxy-phenyl)-2,3,5,6-tetrahydro-[1,2′]bipyrazinyl-4-yl]-phenyl}-ethanone] | 1 to 10 µM
CC(=O)c1ccc(-c2cncc(N3CCN(c4ccccn4)CC3)n2)cc1 [compound 308, 1-[4-(4-Pyridin-2-yl-3,4,5,6-tetrahydro-2H-[1,2′]bipyrazinyl-6′-yl)-phenyl]-ethanone] | 1 to 10 µM
CC(=O)c1ccc(-c2cncc(N3CCN(c4cccc(C)c4C)CC3)n2)s1 [compound 296, 1-{5-[4-(2,3-Dimethyl-phenyl)-3,4,5,6-tetrahydro-2H-[1,2′]bipyrazinyl-6′-yl]-thiophen-2-yl}-ethanone] | 10 to 100 µM
COc1ccc(N2CCN(c3cncc(-c4ccccc4C)n3)CC2)cc1OC [compound 262, 4-(3,4-Dimethoxy-phenyl)-6′-o-tolyl-3,4,5,6-tetrahydro-2H-[1,2′]bipyrazinyl] | 10 to 100 µM
COc1ccc(N2CCN(c3cncc(-c4csc5ccccc45)n3)CC2)cc1 [compound 283, 6′-Benzo[b]thiophen-3-yl-4-(4-methoxy-phenyl)-3,4,5,6-tetrahydro-2H-[1,2′]bipyrazinyl] | 1 to 10 µM
Cc1cccc(-c2cncc(N3CCN(c4ccncc4)CC3)n2)c1 [compound 219, 4-Pyridin-4-yl-6′-m-tolyl-3,4,5,6-tetrahydro-2H-[1,2′]bipyrazinyl] | 1 to 10 µM
Cc1cccc(-c2cncc(N3CCN(c4ccccc4F)CC3)n2)c1C [compound 250, 6′-(2,3-Dimethyl-phenyl)-4-(2-fluoro-phenyl)-3,4,5,6-tetrahydro-2H-[1,2′]bipyrazinyl] | 10 to 100 µM
OCc1ccc(-c2cncc(N3CCN(c4ccc(Cl)c(Cl)c4)CC3)n2)cc1 [compound 315, {4-[4-(3,4-Dichloro-phenyl)-3,4,5,6-tetrahydro-2H-[1,2′]bipyrazinyl-6′-yl]-phenyl}-methanol] | 1 to 10 µM
CN(C)c1ccc(-c2cncc(N3CCC(c4ccccc4)CC3)n2)cc1 [compound 280, Dimethyl-{4-[6-(4-phenyl-piperidin-1-yl)-pyrazin-2-yl]-phenyl}-amine] | 1 to 10 µM
Fc1ccc(N2CCN(c3cncc(-c4ccc5ccccc5c4)n3)CC2)c(F)c1 [compound 199, 4-(2,4-Difluoro-phenyl)-6′-naphthalen-2-yl-3,4,5,6-tetrahydro-2H-[1,2′]bipyrazinyl] | 1 to 10 µM
COc1ccc(N2CCN(c3cncc(-c4cc5ccccc5o4)n3)CC2)cc1 [compound 282, 6′-Benzofuran-2-yl-4-(4-methoxy-phenyl)-3,4,5,6-tetrahydro-2H-[1,2′]bipyrazinyl] | 1 to 10 µM
Cc1ccc(-c2cncc(N3CCN(c4ccc(C)cc4)CC3)n2)cc1 [compound 229, 4,6′-Di-p-tolyl-3,4,5,6-tetrahydro-2H-[1,2′]bipyrazinyl] | 10 to 100 µM
COc1cccc(N2CCN(c3cncc(-c4ccc(C)cc4)n3)CC2)c1 [compound 284, 4-(3-Methoxy-phenyl)-6′-p-tolyl-3,4,5,6-tetrahydro-2H-[1,2′]bipyrazinyl] | 1 to 10 µM
Cc1cccc(N2CCN(c3cncc(-c4ccc5ccccc5c4)n3)CC2C)c1 (stereo not drawn) [compound 347, 3-Methyl-6′-naphthalen-2-yl-4-m-tolyl-3,4,5,6-tetrahydro-2H-[1,2′]bipyrazinyl] | 10 to 100 µM
Cc1nc(C)c(N2CCN(c3ccncc3)CC2)nc1-c1cc2ccccc2s1 [compound 373, 6′-Benzo[b]thiophen-2-yl-3′,5′-dimethyl-4-pyridin-4-yl-3,4,5,6-tetrahydro-2H-[1,2′]bipyrazinyl] | 10 to 100 µM
Cc1cccc(-c2cncc(N3CCN(c4ccccc4)CC3)n2)c1 [compound 244, 4-Phenyl-6′-m-tolyl-3,4,5,6-tetrahydro-2H-[1,2′]bipyrazinyl] | 10 to 100 µM
Fc1cc(-c2cncc(N3CCN(c4cnccn4)CC3)n2)ccc1-c1ccccc1 [compound 334, 6-(2-Fluoro-biphenyl-4-yl)-2′,3′,5′,6′-tetrahydro-[2,1′;4′,2″]terpyrazine] | 10 to 100 µM
COc1ccc(N2CCN(c3cncc(-c4ccccc4CO)n3)CC2)cc1OC [compound 264, {2-[4-(3,4-Dimethoxy-phenyl)-3,4,5,6-tetrahydro-2H-[1,2′]bipyrazinyl-6′-yl]-phenyl}-methanol] | 10 to 100 µM
Cc1ccc(N2CCN(c3cncc(-c4cccc(C)c4)n3)CC2)cc1 [compound 228, 6′-m-Tolyl-4-p-tolyl-3,4,5,6-tetrahydro-2H-[1,2′]bipyrazinyl] | 10 to 100 µM
COc1ccc2cc(-c3cncc(N4CCN(c5ccc(C(C)=O)cc5)CC4)n3)ccc2c1 [compound 213, 1-{4-[6′-(6-Methoxy-naphthalen-2-yl)-2,3,5,6-tetrahydro-[1,2′]bipyrazinyl-4-yl]-phenyl}-ethanone] | 1 to 10 µM
c1ccc(C2CCN(c3cncc(-c4ccc5ccccc5c4)n3)CC2)cc1 [compound 337, 2-Naphthalen-2-yl-6-(4-phenyl-piperidin-1-yl)-pyrazine] | 1 to 10 µM

same assay, conditions: inhibition of UL 97 kinase activity; class by IC50 / % inhibition at 10 or 100 μM; read-out: Activity Class [A, B, C]

Compound | IC50
Clc1cccc(N2CCN(c3cncc(-c4ccccc4)n3)CC2)c1 [compound 97, 4-(3-Chloro-phenyl)-6′-phenyl-3,4,5,6-tetrahydro-2H-[1,2′]bipyrazinyl] | 1 to 10 µM
NC(=O)c1ccc(-c2cncc(N3CCN(c4ccncc4)CC3)n2)cc1 [Comp. 21, 4-(4-Pyridin-4-yl-3,4,5,6-tetrahydro-2H-[1,2′]bipyrazinyl-6′-yl)-benzamide] | < 1 µM
COc1ccccc1N1CCN(c2cncc(-c3ccc(C(F)(F)F)cc3)n2)CC1 [compound 188, 4-(2-Methoxy-phenyl)-6′-(4-trifluoromethyl-phenyl)-3,4,5,6-tetrahydro-2H-[1,2′]bipyrazinyl] | 10 to 100 µM
Clc1ccc(-c2cncc(NCc3ccco3)n2)cc1 [compound 26, [6-(4-Chloro-phenyl)-pyrazin-2-yl]-furan-2-ylmethyl-amine] | < 1 µM
COc1ccc(-c2cncc(N3CCN(c4cccc5[nH]ccc45)CC3)n2)cc1 [compound 38, 4-(1H-Indol-4-yl)-6′-(4-methoxy-phenyl)-3,4,5,6-tetrahydro-2H-[1,2′]bipyrazinyl] | 1 to 10 µM
Fc1ccc(-c2cncc(N3CCN(c4ccncc4)CC3)n2)cc1Cl [compound 33, 6′-(3-Chloro-4-fluoro-phenyl)-4-pyridin-4-yl-3,4,5,6-tetrahydro-2H-[1,2′]bipyrazinyl] | < 1 µM
COc1ccc(N2CCN(c3cncc(-c4ccc(C(N)=O)cc4)n3)CC2)cc1OC [compound 20, 4-[4-(3,4-Dimethoxyphenyl)-3,4,5,6-tetrahydro-2H-[1,2′]bipyrazinyl-6′-yl)-benzamide] | < 1 µM
Fc1ccccc1N1CCN(c2cncc(-c3cc(C(F)(F)F)cc(C(F)(F)F)c3)n2)CC1 [compound 196, 6′-(3,5-Bis-trifluoromethyl-phenyl)-4-(2-fluoro-phenyl)-3,4,5,6-tetrahydro-2H-[1,2′]bipyrazinyl] | 10 to 100 µM
6′-Benzo[b]thiophen-2-yl-4-pyridin-4-yl-3,4,5,6-tetrahydro-2H-[1,2′]bipyrazinyl [compound 69] | < 1 µM
Fc1ccc(-c2cncc(N3CCN(c4ccncc4)CC3)n2)cc1 [compound 76, 6′-(4-Fluoro-phenyl)-4-pyridin-4-yl-3,4,5,6-tetrahydro-2H-[1,2′]bipyrazinyl] | 1 to 10 µM
Cc1ccccc1-c1cncc(N2CCN(c3cccc(Cl)c3)CC2)n1 [compound 82, 4-(3-Chloro-phenyl)-6′-o-tolyl-3,4,5,6-tetrahydro-2H-[1,2′]bipyrazinyl] | 10 to 100 µM
CC(=O)c1ccc(N2CCN(c3cncc(-c4ccccc4C(C)=O)n3)CC2)cc1 [compound 146, 1-{2-[4-(4-Acetyl-phenyl)-3,4,5,6-tetrahydro-2H-[1,2′]bipyrazinyl-6′-yl]-phenyl}-ethanone] | 10 to 100 µM
FC(F)(F)c1cccc(N2CCN(c3cncc(-c4cc5ccccc5s4)n3)CC2)c1 [compound 160, 6′-Benzo[b]thiophen-2-yl-4-(3-trifluoromethyl-phenyl)-3,4,5,6-tetrahydro-2H-[1,2′]bipyrazinyl] | 1 to 10 µM
OCc1ccc(-c2cncc(N3CCN(c4ccccc4)CC3)n2)cc1 [compound 117, [4-(4-Phenyl-3,4,5,6-tetrahydro-2H-[1,2′]bipyrazinyl-6′-yl)-phenyl]-methanol] | 1 to 10 µM
CSc1ccc(-c2cnc(N)c(N3CCN(c4ccncc4)CC3)n2)cc1 [compound 75, 6′-(4-Methylsulfanyl-phenyl)-4-pyridin-4-yl-3,4,5,6-tetrahydro-2H-[1,2′]bipyrazinyl-3′-ylamine] | < 1 µM
N#Cc1ccccc1N1CCN(c2cncc(-c3ccc(Cl)cc3)n2)CC1 [compound 42, 2-[6′-(4-Chloro-phenyl)-2,3,5,6-tetrahydro-[1,2′]bipyrazinyl-4-yl]-benzonitrile] | 1 to 10 µM
CC(=O)c1cccc(-c2cncc(N3CCN(c4ccccc4)CC3)n2)c1 [compound 112, 1-[3-(4-Phenyl-3,4,5,6-tetrahydro-2H-[1,2′]bipyrazinyl-6′-yl)-phenyl]-ethanone] | 1 to 10 µM
COc1ccc(-c2cncc(NCCc3cccnc3)n2)cc1 [compound 18] | < 1 µM
COc1ccc(Cl)cc1-c1cncc(N2CCN(c3ccccc3)CC2)n1 [compound 119, 6′-(5-Chloro-2-methoxy-phenyl)-4-phenyl-3,4,5,6-tetrahydro-2H-[1,2′]bipyrazinyl] | 10 to 100 µM
